Measured values reported in US12173088B2, “Anti-microbial peptides” (priority 2018, dated 2024).
Converted amounts (≈) assume the structure as drawn. Where two headings read alike, the source gives them in different places. Peptide text beside a SMILES is read from it.

How the values were obtained:
[1] = In vivo toxicity after i.p. injection; design: species or system mice; details: for Animal death: 10, 20, and 30 mg/kg i.p., five-day experiment; for Mobility: higher peptide doses
Description: Because DFT561 had crossed multiple in vitro barriers (Table 5), its in vivo toxicity and efficacy was tested. A well-established neutropenic mouse model was used, which is often utilized to evaluate the efficacy of antibiotics and peptide mimics (Ambrose, et al. (2012) Clin. Infect. Dis., 54(3):S220-8; Radzishevsky, et al. (2007) Nat. Biotechnol., 25:657-659). In this model, the effect of immune cells on bacterial killing is minimized via two injections of cyclophosphamide before infection (FIG. 5). To evaluate the safety of the peptide in vivo, the toxicity of DFT561 injected intraperitoneally (i.p.) was compared at […] per mouse. […] In addition, alanine transaminase normally resides in serum and tissues but can be released after liver injury. Differences in a quantitative alanine transaminase assay of liver homogenates from mice treated at 0, 10, and 20 mg/kg was not observed.
Neutropenic mice are widely accepted for systemic efficacy evaluation of antibiotics (Zhao, et al. (2016) Bioorg. Med. Chem. 24:6390-6400; Craig, et al. (1991) J. Antimicrob. Chemother., 27:29-40). This model enables better evaluation of compound potency by minimizing the bacterial clearance effect of the immune system. Using this model, the efficacy of horine against S. aureus USA300 and verine against K. pneumonia E406-17 was tested. C57BL/6 mice were made neutropenic by two injections of cyclophosphamide intraperitoneally (i.p.). The acute toxicity of horine and verine was investigated by i.p. injecting them into mice at 10, 20, and 30 mg/kg body weight.

E. coli E423-17 = assay: microbe, parasite or virus in culture; format: cell-based, Escherichia coli
How it was run: (§1)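 Peptides were serially diluted two-fold against bacteria grown in tryptic soy broth to log phase (OD600 ≈0.5), then seeded at OD600 0.001. Plates were held overnight at 37° C and read at 630 nm. USA300 was also tested at pH 6.8, 7.2 and 8.0, with 150 mM NaCl or 5-10% serum, plasma or peritoneal fluid.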

E. faecium V286-17 (VRE) = assay: microbe, parasite or virus in culture; format: cell-based, Enterococcus faecium
How it was run: as §1

P. aeruginosa E411-17 = assay: microbe, parasite or virus in culture; format: cell-based, Pseudomonas aeruginosa
How it was run: as §1

Hemolytic assay = format: cell-based, human; details: human
How it was run: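 HL50 marks the peptide level lysing half of a 2% (v/v) suspension of washed human erythrocytes after 1 h at 37 °C. Released hemoglobin measured at 545 nm, scaled between PBS (0%) and Triton X-100 (2% or 1%; 100%). Selectivity index computed as HL50 over MIC.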

K. pneumoniae E406-17 = assay: microbe, parasite or virus in culture; format: cell-based, Klebsiella pneumoniae
How it was run: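 Broth microdilution in tryptic soy broth: log-phase cultures (OD600 ≈0.5) diluted to OD600 0.001, given two-fold peptide dilutions, incubated overnight at 37° C. Growth read at 630 nm.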

S. aureus USA300 = assay: microbe, parasite or virus in culture; format: cell-based, Staphylococcus aureus
How it was run: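 Broth microdilution: log-phase cultures in tryptic soy broth diluted to OD600 0.001, exposed to two-fold diluted peptides at 37° C overnight, growth read at 630 nm. Medium effects on S. aureus USA300 tested with up to 200 mM NaCl, 2 mM CaCl2, 5-10% human serum, mouse plasma, fluids or tissue homogenate supernatants.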

[2] = E423-17, read-out: MIC E. coli E423-17
[3] = E411-17, read-out: MIC P. aeruginosa E411-17
[4] = E406-17, read-out: MIC K. pneumoniae E406-17

CC(C)C[C@H](NC(=O)[C@H](CC(C)C)NC(=O)[C@H](CCCCN)NC(=O)[C@H](CC(C)C)NC(=O)CNC(=O)[C@H](CC(C)C)NC(=O)[C@H](CO)NC(=O)[C@H](CC(C)C)NC(=O)[C@H](CC(C)C)NC(=O)[C@H](CC(C)C)NC(=O)[C@H](CCCCN)NC(=O)[C@H](CC(C)C)NC(=O)CN)C(N)=O [DFT561, GLKLLLSLGLKLL] (H-GLKLLLSLGLKLL-NH2; N-terminus and C-terminus assumed)
Differences in alanine transaminase assay of liver homogenates ([1]; 0, 10, and 20 mg/kg): not observed
Toxicity (conclusion) ([1]; 5 mg/kg): not toxic
Behaviour of mice ([1]; 10 mg/kg i.p.): behaved normal
Weight losses ([1]; 10, 20, 40 mg/kg i.p.): statistically insignificant
Behaviour of mice ([1]; 20 or 40 mg/kg i.p.): reduced activity for 30 minutes
MIC (E. coli E423-17; [2]): >50 µM
MIC E. faecium V286-17 (VRE) (E. faecium V286-17 (VRE); V286-17 (VRE)): 3.1 to 6.25 µM
MIC (P. aeruginosa E411-17; [3]): >50 µM
HC50 at 1 h (Hemolytic assay; human red blood cells, 2% (v/v)): > 300 µM
MIC (K. pneumoniae E406-17; [4]): >50 µM
MIC (S. aureus USA300; USA300): 1.6 µM (≈ 2.21 µg/mL)
MIC SA (S. aureus USA300) (S. aureus USA300; USA300): 1.6 µM (≈ 2.21 µg/mL)
MIC (S. aureus USA300; USA300, pH 6.8): 3.1 µM (≈ 4.28 µg/mL)
MIC (S. aureus USA300; USA300, pH 7.4): 1.6 µM (≈ 2.21 µg/mL)
MIC (S. aureus USA300; USA300, pH 8): 1.6 µM (≈ 2.21 µg/mL)

CC(C)C[C@H](NC(=O)[C@H](Cc1c[nH]c2ccccc12)NC(=O)[C@H](Cc1c[nH]c2ccccc12)NC(=O)[C@@H](N)Cc1c[nH]c2ccccc12)C(=O)N[C@@H](CCCNC(=N)N)C(=O)N[C@@H](CCCNC(=N)N)C(=O)N[C@@H](CCCNC(=N)N)C(=O)N[C@@H](Cc1c[nH]c2ccccc12)C(N)=O [Horine, WWWLRRRW] (H-WWWLRRRW-NH2; N-terminus and C-terminus assumed)
Animal death [1]: no animal death
Mobility [1]: initial short-term reduced mobility
MIC (E. coli E423-17; [2]): >32 µM
MIC (E. faecium V286-17 (VRE); V286-17 (VRE), read-out: MIC E. faecium V286-17 (VRE)): 2 µM (≈ 2.69 µg/mL)
MIC (P. aeruginosa E411-17; [3]): >32 µM
HC50 at 1 hour (Hemolytic assay): > 200 µM
MIC (K. pneumoniae E406-17; [4]): >32 µM
MIC (S. aureus USA300; USA300, read-out: MIC S. aureus USA300 (MRSA)): 4 µM (≈ 5.37 µg/mL)

CN[C@H](CC(C)C)C(=O)N[C@H]1C(=O)N[C@@H](CC(N)=O)C(=O)N[C@H]2C(=O)N[C@H]3C(=O)N[C@H](C(=O)N[C@H](C(=O)O)c4cc(O)cc(O)c4-c4cc3ccc4O)[C@H](O)c3ccc(c(Cl)c3)Oc3cc2cc(c3O[C@@H]2O[C@H](CO)[C@@H](O)[C@H](O)[C@H]2O[C@H]2C[C@](C)(N)[C@H](O)[C@H](C)O2)Oc2ccc(cc2Cl)[C@H]1O [Vancomycin]
MIC (E. coli E423-17; Escherichia coli, E42317, read-out: MIC E. coli E423-17): > 8 µM
MIC (E. faecium V286-17 (VRE); Enterococcus faecium, VRE, read-out: MIC E. faecium V286-17 (VRE), Table 7): ≥ 12.5 µM
MIC (E. faecium V286-17 (VRE); Enterococcus faecium, VRE, read-out: MIC E. faecium V286-17 (VRE), Table 14): > 8 µM
MIC (P. aeruginosa E411-17; Pseudomonas aeruginosa, E41117, read-out: MIC P. aeruginosa E411-17): > 8 µM
MIC (K. pneumoniae E406-17; Klebsiella pneumoniae, E40617, read-out: MIC K. pneumoniae E406-17): > 8 µM
MIC (S. aureus USA300; Staphylococcus aureus, MRSA / USA300, read-out: MIC S. aureus USA300 (MRSA)): 1 µM (≈ 1.45 µg/mL)

CC(C)[C@H](NC(=O)[C@H](Cc1c[nH]c2ccccc12)NC(=O)[C@H](Cc1c[nH]c2ccccc12)NC(=O)[C@H](Cc1c[nH]c2ccccc12)NC(=O)[C@H](Cc1c[nH]c2ccccc12)NC(=O)[C@H](CCCNC(=N)N)NC(=O)[C@H](CCCNC(=N)N)NC(=O)[C@@H](N)CCCNC(=N)N)C(N)=O [Verine, RRRWWWWV] (H-RRRWWWWV-NH2; N-terminus and C-terminus assumed)
Animal death [1]: no animal death
Mobility [1]: initial short-term reduced mobility
MIC (E. coli E423-17; Table 14, read-out: MIC E. coli E423-17): 2 µM (≈ 2.66 µg/mL)
MIC (E. faecium V286-17 (VRE); Table 14, read-out: MIC E. faecium V286-17 (VRE)): 2 µM (≈ 2.66 µg/mL)
MIC P. aeruginosa 411-17 (P. aeruginosa E411-17; Table 12): 12.5 µM (≈ 16.6 µg/mL)
MIC P. aeruginosa E411-17 (P. aeruginosa E411-17; Table 14): 4 to 8 µM
HC50 at 1 hour (Hemolytic assay; 2% hRBCs, read-out: LC50): > 200 µM
MIC K. pneumonia 406-17 (K. pneumoniae E406-17; Table 12): 6.25 µM (≈ 8.31 µg/mL)
MIC (K. pneumoniae E406-17; Table 14, read-out: MIC K. pneumoniae E406-17): 8 µM (≈ 10.6 µg/mL)
MIC S. aureus USA300 (MRSA) (S. aureus USA300; Table 14): 2 to 4 µM
MIC (S. aureus USA300; Table 17, strain USA300): 2 to 4 µM
